Assay: Human HepG2 cell viability assay in 384 well format
Format: toxicity, cell-based
Parameters: dose 125 nL, time 70.5 hour; concentration not given beside the values
Settings: HepG2 cells, read-out: Inhibition

Cc1cccc(COC[C@@]23CCC[C@@H]2CN(C(=O)Cc2ccco2)C3)n1
cytotoxicity at 70.5 h: -8.53%

Cc1nnc([C@H]2C[C@H]3CN(C(=O)Cc4ccc(F)cc4)CC[C@@H]3O2)o1
cytotoxicity at 70.5 h: -6.08%

Cc1cc2c(N3CCC(N(C)Cc4cnn(C)c4)CC3)ncnc2s1
cytotoxicity at 70.5 h: -3.32%

Cc1nccc(-c2ccccc2)c1C(=O)N1CC[C@](C)(O)C(C)(C)C1
cytotoxicity at 70.5 h: 1.9%

O=C1CCCCCN1CCC(=O)N1CCCC(c2ccn[nH]2)C1 (centres undefined)
cytotoxicity at 70.5 h: -9.01%

Cc1ccc2c(c1)SCC(=O)N2CC(=O)N1CCCC1c1cc(C)on1 (centres undefined)
cytotoxicity at 70.5 h: -1.98%

O=C(Nc1ccccc1)c1cc2n(n1)CCCN(C(=O)N1CCCC1)C2
cytotoxicity at 70.5 h: 22.6%

CNc1nc(C(=O)N2CCC3(CCCN(CC4CC4)C3=O)C2)cs1 (centres undefined)
cytotoxicity at 70.5 h: -1.68%

CN1CCC(N(Cc2ccncc2)Cc2nc3c(s2)CCCC3)CC1
cytotoxicity at 70.5 h: -11.2%

O=C1CC[C@@H](CN(Cc2ccncc2)Cc2nc(-c3cccs3)no2)N1
cytotoxicity at 70.5 h: -3.48%

c1ccc(-c2nc3c(c(NCc4nnc5n4CCC5)n2)CCNC3)cc1
cytotoxicity at 70.5 h: -7.92%

Cc1ccnn1CCC(=O)N(Cc1ccsc1)CC(C)C
cytotoxicity at 70.5 h: -2.24%

O=C1OC2(CCN(CC3CCCO3)CC2)CN1CCc1ccccc1 (centres undefined)
cytotoxicity at 70.5 h: 2.25%

CN(CCc1ccccc1)C(=O)CN1C(=O)OC[C@@H]1c1ccccc1
cytotoxicity at 70.5 h: 23.5%

O=C1CCC(c2ccccc2)(c2ccccc2)CN1CCO
cytotoxicity at 70.5 h: -3.47%

Cn1c(N2CCOCC2)nc2cc(C(=O)N3CC(O)CO3)ccc21 (centres undefined)
cytotoxicity at 70.5 h: 32.1%

CN(C)C1(CNc2nccc(C3CCCC3)n2)CCOCC1
cytotoxicity at 70.5 h: -4.46%

C[C@@H]1CN(C2(C(=O)N3CCSCC3)Cc3ccccc3C2)C[C@H](C)O1
cytotoxicity at 70.5 h: 2.94%

FC(F)(F)c1ccnc(N2CCCC(N3CCOCC3)C2)c1 (centres undefined)
cytotoxicity at 70.5 h: 9.74%

Oc1ccccc1-c1cc(-c2nc(C3CC3)n[nH]2)[nH]n1
cytotoxicity at 70.5 h: -6.44%

Cc1ccc(-c2ccnc(N3CCC4(CC3)CNC(=O)C4)n2)c(C)n1
cytotoxicity at 70.5 h: 15.1%

C[C@@H]1CN(c2nc(N)nc3c2CCC3)C[C@]1(C)O
cytotoxicity at 70.5 h: 1.03%

CCn1cncc1-c1nc2c([nH]1)CC(C)(C)CNC2=O
cytotoxicity at 70.5 h: -3.18%

CC(C)(C)c1ccc(-n2ncc3c2CCCC3N)cc1 (centres undefined)
cytotoxicity at 70.5 h: -3.43%

CCc1nc(C)c(CN2CCN(c3ncnc4scc(C)c34)CC2)[nH]1
cytotoxicity at 70.5 h: -9.72%

CCc1noc(C2CC(=O)N(CCN(C)C)C2)n1 (centres undefined)
cytotoxicity at 70.5 h: -3.23%

CN1CCN2CCN(Cc3cc(=O)n4c5c(cccc35)CCC4)CC2C1 (centres undefined)
cytotoxicity at 70.5 h: -13.5%

CCCc1n[nH]c(=O)n1Cc1ccccc1F
cytotoxicity at 70.5 h: 2.4%

Cc1cc2cc(NC(=O)Cn3ncc(N4CCCC4)cc3=O)ccc2o1
cytotoxicity at 70.5 h: 15.3%

CSCC(=O)N1C[C@H](c2ccc(C)o2)[C@@H](N)C1
cytotoxicity at 70.5 h: -3.37%

Oc1cccc(CN2CCN(c3nccc(CCC(F)(F)F)n3)CC2)c1
cytotoxicity at 70.5 h: -3.66%

O=C(O)c1ccc(C2CCCN(C(=O)c3ccc[nH]3)C2)cc1 (centres undefined)
cytotoxicity at 70.5 h: -6.26%

O=C1CC(C(=O)NCCN2CCOC2=O)c2cc(F)ccc2N1 (centres undefined)
cytotoxicity at 70.5 h: 2.37%

CC(C)c1nnc(N2C[C@@H](CN(C)CCO)[C@@H](CO)C2)s1
cytotoxicity at 70.5 h: 12.7%

CS(=O)(=O)NCC(=O)N[C@H]1CN(CC2CC2)C[C@@H]1c1ccccc1
cytotoxicity at 70.5 h: -9.72%

O=C1CCC(CCC(=O)N2CCC2c2cccs2)=NN1 (centres undefined)
cytotoxicity at 70.5 h: -13.3%

O=C(c1n[nH]c2c1CCC2)N1CCCC1c1nc(-c2ccccn2)no1 (centres undefined)
cytotoxicity at 70.5 h: -3.03%

CCn1ccnc1CN1CCCC(N(C)CCc2ccccc2)C1 (centres undefined)
cytotoxicity at 70.5 h: -1.22%

Cc1nccn1Cc1nnc(C2CCCN(c3ncccn3)C2)n1C (centres undefined)
cytotoxicity at 70.5 h: 15.5%

O=C1CN(CCCNC(=O)Nc2cccc(Cl)c2F)CCN1
cytotoxicity at 70.5 h: -2.99%

Cn1ccnc1CN(CCO)C(=O)c1cc2ccccc2o1
cytotoxicity at 70.5 h: 9.95%

COc1ccccc1S(=O)(=O)N1CCN(C)[C@@H]2CS(=O)(=O)C[C@@H]21
cytotoxicity at 70.5 h: 24.4%

Cc1n[nH]c(SCCNC2CCN(c3nc4ccccc4s3)CC2)n1
cytotoxicity at 70.5 h: 2%

CN(C)S(=O)(=O)CCNc1ncc2c(n1)CCN2c1ccccc1
cytotoxicity at 70.5 h: -6.26%

CNc1ccnc(NCCSc2nccn2C)n1
cytotoxicity at 70.5 h: -1.64%

Cc1cc(N2CCCN(C(=O)Cc3cc(F)cc(F)c3)CC2)ccn1
cytotoxicity at 70.5 h: -1.71%

CC1(C)[C@H]2CC=C(CN3CCCn4nc(C(=O)NCCO)cc4C3)[C@@H]1C2
cytotoxicity at 70.5 h: -4.77%

COc1cc(-c2cnnc(NCCSC)n2)cc(OC)c1OC
cytotoxicity at 70.5 h: -5.18%

CCc1nn(C)c(Cl)c1CN(CCOC)Cc1cnn(C)c1
cytotoxicity at 70.5 h: 0.921%

Cc1ccc2nc(CN3CCC(O)(Cn4ccnc4)CC3)cc(O)c2c1
cytotoxicity at 70.5 h: -7.59%

Cc1ccsc1CCNC(=O)CCC(=O)NC1CCCC1
cytotoxicity at 70.5 h: -15.3%

Cn1ccnc1C1CCCN(C(=O)c2ccncc2F)C1 (centres undefined)
cytotoxicity at 70.5 h: -5.94%

CCC[C@H]1CN(CCCO)C[C@@H]1NC(=O)Cn1cc(C)cn1
cytotoxicity at 70.5 h: -4.28%

O=C(c1coc(COc2cccc3cnccc23)n1)N1CCSCC1
cytotoxicity at 70.5 h: -5.09%

CCSCCNc1cc(C)nc2c(C)c(C)nn12
cytotoxicity at 70.5 h: -4.65%

COc1cccc(-c2n[nH]c3c2CN(C(=O)c2oc(C)cc2C)CC3)c1
cytotoxicity at 70.5 h: -0.91%

Cc1ccc([C@@H]2CN(S(=O)(=O)c3ccccc3)C[C@H]2N(C)C)cc1
cytotoxicity at 70.5 h: -9.61%

Cc1cnc(C)c(N2CCC3(CCCN(C4CCOCC4)C3=O)C2)n1 (centres undefined)
cytotoxicity at 70.5 h: -8.78%

CSc1ccc(CN(CCO)C(=O)CCc2ccc(O)cc2)cc1
cytotoxicity at 70.5 h: -16.6%

Nc1ccc(-c2cc(O)cc(CCC3CCCCN3)c2)cn1 (centres undefined)
cytotoxicity at 70.5 h: -5.09%

CCCN1CCC(N2CCOC(Cc3cccc(OC)c3)C2)CC1 (centres undefined)
cytotoxicity at 70.5 h: 9.86%

Cc1noc(C)c1CN1C[C@@H]2CC[C@H](C1)N(Cc1cc(F)cc(F)c1)C2
cytotoxicity at 70.5 h: -14.1%

COCCn1cncc1CN1CCC(C(C)=O)(c2ccccc2)CC1
cytotoxicity at 70.5 h: -15.1%

c1ccc(CN2CCC(Cc3noc(C4CC4)n3)CC2)cc1
cytotoxicity at 70.5 h: -5.84%

CNC(=O)[C@@H]1C[C@@H](n2cc(-c3ccc(Cl)cc3)nn2)CN1
cytotoxicity at 70.5 h: 13.9%

Cc1nnc(CN2C[C@H](NC(=O)C3CCOCC3)[C@@H](C(C)C)C2)s1
cytotoxicity at 70.5 h: -6.56%

CCc1nc(CC2CN(c3ncnc4sc(C)c(C)c34)CCO2)no1 (centres undefined)
cytotoxicity at 70.5 h: -19.7%

CSc1ncccc1C(=O)N1C[C@H]2CC[C@@H]1CN(CC(=O)N(C)C)C2
cytotoxicity at 70.5 h: 45.6%

CN(C)C[C@H]1CC[C@@H](Cc2ccc3c(cnn3C)c2)O1
cytotoxicity at 70.5 h: -11.9%

Nc1ccnc(N2CCC(CCc3ccccc3)(C(=O)O)CC2)n1
cytotoxicity at 70.5 h: 14.5%

CNC(=O)[C@@H]1C[C@@H](NC(=O)c2ccc(OC)o2)CN1Cc1sccc1C
cytotoxicity at 70.5 h: 1.26%

CCN1CC(C(=O)NCc2nn(CC)c3ccccc23)CCC1=O (centres undefined)
cytotoxicity at 70.5 h: 10.8%

CCN1CCC2(CCC1=O)CN(c1cnc3ccccc3n1)CCN2C (centres undefined)
cytotoxicity at 70.5 h: -2.99%

N[C@@H]1c2ccccc2C2(CCN(c3cc(C(F)(F)F)ccn3)CC2)[C@H]1O
cytotoxicity at 70.5 h: 39.4%

COc1cccc(-c2noc(-c3ccc(NCCCO)nc3)n2)c1OC
cytotoxicity at 70.5 h: 2.28%

Cc1nc(N2CCN(C)CC2)ncc1C(=O)N1CC[C@](C)(O)[C@H](C)C1
cytotoxicity at 70.5 h: -7.36%

CNCC(=O)N[C@H]1CN(c2nc(C)c3c(n2)CCCC3)C[C@@H]1C1CC1
cytotoxicity at 70.5 h: -11.2%

CCn1cnnc1CCNCc1c[nH]nc1-c1ccc(F)cc1
cytotoxicity at 70.5 h: 5.79%

Cn1c(Cn2cccn2)nnc1C1CCN(Cc2ccccc2Cl)CC1
cytotoxicity at 70.5 h: -4.12%

Cc1cccc(-c2nc(N)nc3c2CN(C(=O)c2ccncn2)C3C)c1 (centres undefined)
cytotoxicity at 70.5 h: -18.2%

Cc1ccncc1C(=O)N1C[C@H]2CN(CC3CCC3)C[C@@]2(C(=O)O)C1
cytotoxicity at 70.5 h: -8.6%

CN1CCC(n2nc(Cc3cccc(Cl)c3)nc2Cn2ccnc2)CC1
cytotoxicity at 70.5 h: -8.49%

COc1cccc(OC2CN(C(=O)CCn3cnc4ccccc43)C2)c1
cytotoxicity at 70.5 h: 29.2%

Cc1ccc([C@@H]2CN(C(=O)c3cc(C)n[nH]3)C[C@H]2NC(=O)C2CC2)cc1
cytotoxicity at 70.5 h: 6.77%

CC(C)c1nc(CCN(C)c2nccc(N3CCCC(O)C3)n2)no1 (centres undefined)
cytotoxicity at 70.5 h: -8.03%

CCc1ccc(CN2CCOC(Cc3cccc(F)c3)C2)nc1 (centres undefined)
cytotoxicity at 70.5 h: -5.34%

CC1(C)CNC(=O)c2nc(CCN3CCC(O)CC3)[nH]c2C1
cytotoxicity at 70.5 h: -1.47%

OC1CCN(CCNc2ncc3c(n2)CCN3c2ccccc2)CC1
cytotoxicity at 70.5 h: -7.98%

O=C(c1cccc(-n2cccn2)c1)N1CCCOC(CN2CCCC2)C1 (centres undefined)
cytotoxicity at 70.5 h: 0.244%

CC(=O)Nc1ccc(Cl)c(C(=O)N(C)Cc2nc(C)c[nH]2)c1
cytotoxicity at 70.5 h: -8.28%

COc1cccc(Cl)c1C(C(=O)O)N1CCC(Cn2cccn2)CC1 (centres undefined)
cytotoxicity at 70.5 h: 17.9%

O=C(NC1CCCN(CCCc2ccccc2)C1)c1ccc(Cl)s1 (centres undefined)
cytotoxicity at 70.5 h: -4.66%

Cc1ccc(F)c(NC(=O)CCC(=O)N(C)Cc2nc(C)c[nH]2)c1
cytotoxicity at 70.5 h: -5.55%

COc1ccc2c(C)c(C(=O)NCC3CN(S(C)(=O)=O)CCO3)oc2c1 (centres undefined)
cytotoxicity at 70.5 h: 16.6%

O=C(CO)N1CCCC(N2CCN(c3ccccc3F)CC2)C1 (centres undefined)
cytotoxicity at 70.5 h: -0.739%

COc1ccc(OC)c(C2CCN(C(=O)CCc3n[nH]c(N)n3)C2)c1 (centres undefined)
cytotoxicity at 70.5 h: 12.4%

CC1(C)CN(C(=O)c2ccccc2-n2cncn2)CC1(C)O (centres undefined)
cytotoxicity at 70.5 h: 18.2%

Cc1ccc2nc(CN3CCN(C4CCCC4)C(=O)C3)cc(O)c2c1
cytotoxicity at 70.5 h: 9.29%

c1cncc(-c2noc(CCNc3ncnc4c3CCNCC4)n2)c1
cytotoxicity at 70.5 h: -7.7%

CC(=O)N1C[C@H](NC(=O)c2ccnc(N)c2)[C@@H](C(C)C)C1
cytotoxicity at 70.5 h: 3.14%

Cc1ccc(C)c2c1NC(=O)C2CC(=O)O (centres undefined)
cytotoxicity at 70.5 h: 2.65%

COCCn1ccnc1C1CCCN(C(=O)c2cc(F)cc(F)c2)C1 (centres undefined)
cytotoxicity at 70.5 h: -3.01%

Cc1cc(N2CCC(N3CCOCC3)C2)n2nc(C)c(C)c2n1 (centres undefined)
cytotoxicity at 70.5 h: -4.03%

O=C(c1cnc(O)cc1O)N1CCCC(CCc2ccccc2F)C1 (centres undefined)
cytotoxicity at 70.5 h: -11.4%

O=C(CCn1cccn1)N1CCC(C2CCN(c3ncccn3)CC2)C1 (centres undefined)
cytotoxicity at 70.5 h: -6.6%

CCC[C@@H]1CN(Cc2cc3c(cc2OC)OCO3)C[C@H]1C(=O)O
cytotoxicity at 70.5 h: -2.47%

CCN(Cc1ccncc1)C1CCCN(C/C=C/c2ccc(F)cc2)C1 (centres undefined)
cytotoxicity at 70.5 h: -3.49%

CCNCCc1nc2cc(F)ccc2[nH]1
cytotoxicity at 70.5 h: -4.56%

CC(=O)c1ccc(NC(=O)c2ccc3c(c2)C2(CCCCC2)CN3)cc1
cytotoxicity at 70.5 h: -9.32%

From ChEMBL document CHEMBL3507680, “University of Dundee, Gates Library screen for HepG2 cell viability”
